This note sets out measurements from US7074758B2, “Two gonadotropin releasing hormones and a method to isolate the same” (Council of Scientific and Industrial Research, priority 2002, dated 2006).

“Also recorded” adds a separate entry of the source. Read-outs that look alike come from different tables or passages of the source.

In test [1] the test system is Cyprinus carpio pituitary cells. As to the kind of experiment: gonadotropin release from carp pituitaries in response to murrel GnRH I and II. The class given is cell-based. Conditions: 2 μg GnRH fractions.
Test [2] deals with Catla catla pituitary cells. Described as above. The class given is cell-based. The conditions noted are these: 2 μg GnRH fractions. From the text:
(§1) Meanwhile Jamaluddin et al, (Gen comp Endocrinology May 1989; 74(2): 190–8) of applicants laboratory developed a very dependable GnRH bioassay. Basic principle of this bioassay is to get the release of GTH from murrel primary pituitary cell culture and determine the amount of GTH released by GTH-RIA. […] Moreover, these two GnRHs act almost equally in different species of carp indicating no species barrier (As shown below in Table 3).

Test [3] deals with Cirrhinus mrigala pituitary cells. The description is as above. The class given is cell-based. Conditions: 2 μg GnRH fractions.
Excerpt: as §1

The test system of another test is murrel pituitary cells. As to the kind of experiment: GtH release from murrel pituitary cell incubations, GtH measured by RIA. The class given is cell-based, Indian Murrel. The conditions noted are these: for GtH released: Table 4, 2 μg GnRH fractions, mean ± SEM of five experiments, species of cells not given; for increase gonadotropin release: fold increase of gonadotropin release. How it is done:
Meanwhile Jamaluddin et al, (Gen comp Endocrinology May 1989; 74(2): 190–8) of applicants laboratory developed a very dependable GnRH bioassay. Basic principle of this bioassay is to get the release of GTH from murrel primary pituitary cell culture and determine the amount of GTH released by GTH-RIA. […]
These three acetone fractions were extracted with petroleum ether (40–60° C.) to remove acetone, lipids and other hydrophobic substances. The final precipitates were centrifuged at 8,000 g for 15 min at 4° C. and the residues were stored at −80° C. until further use.

In the case of “QHWSAWRLPG (channa punctatus) [muGnRH I]”, the “GtH II released” value in test [1] is reported as 73.8 ± 2.51 ng/6 × 10^4 cells; in test [2], 74.5 ± 2.32 ng/6 × 10^4 cells; in test [3], 72.0 ± 2.13 ng/6 × 10^4 cells. Besides, the results for the “GnRH activity on the basis of GTH release from in vitro pituitary cell culture” value with murrel pituitary cells and in the test with murrel pituitary cells (listed as QRP H) were “highly active” and “GnRH was found to be located”, respectively. Further, in the test with murrel pituitary cells, the GtH released turned out to be 73.3 ± 2.2 ng/6 × 10^4 cells. In addition, the increase gonadotropin release result in the test on murrel pituitary cells is reported as “about 30 times”.
Take “QHWSWGILPG (channa punctatus) [muGnRH II]”: the “GtH II released” value in test [1] is reported as 81.7 ± 3.12 ng/6 × 10^4 cells; in test [2], 82.6 ± 3.02 ng/6 × 10^4 cells; in test [3] it was 80.1 ± 2.61 ng/6 × 10^4 cells. Further, the “GnRH activity on the basis of GTH release from in vitro pituitary cell culture” value in the test with murrel pituitary cells was “more active gonadotropin releasing hormone than muGnRH I; also recorded: highly active; also recorded: slightly more active”; with murrel pituitary cells (listed as SRP H), “GnRH was found to be located”. In addition, the GtH released in the test with murrel pituitary cells is reported as 79.2 ± 3.12 ng/6 × 10^4 cells. Moreover, in the test on murrel pituitary cells, the increase gonadotropin release entry is reported as “about 35 times”.
Consider “des-Gly^10,[D-Ala^6]-LHRH [GnRH superactive analogue, reference compound]”, for which, in the test on murrel pituitary cells, the GtH released turned out to be 68.0 ± 2.32 ng/6 × 10^4 cells.
Same read-out and setting: as for “mammalian GnRH: mammalian gonadotropin releasing hormone decapeptide, comparator (QHWSYGLRPG; Gonadoliberin-1; UniProt P01148 24-33, looked up) [reference compound]”, the figure is 49.9 ± 2.02 ng/6 × 10^4 cells.
